Data: ChEMBL document CHEMBL3352695, “Synthesis and biological evaluation of novel isoxazoles and triazoles linked 6-hydroxycoumarin as potent cytotoxic agents” (Bioorg Med Chem Lett, 2014)

Experiments:
Assay type in all cases: functional, cell-based
A549 = assay: Cytotoxicity against human A549 cells after 48 hrs by MTT assay; settings: A549, 48 h
[1] = Cytotoxicity against human PC3 cells after 48 hrs by MTT assay; settings: PC-3, 48 h
[2] = Cytotoxicity against human HL60 cells after 48 hrs by MTT assay; settings: HL-60, 48 h
COLO 205 = assay: Cytotoxicity against human COLO205 cells after 48 hrs by MTT assay; settings: COLO 205, 48 h
[3] = Cytotoxicity against human HCT116 cells after 48 hrs by MTT assay; settings: HCT-116, 48 h

Work on C#CCOc1ccc2oc(=O)ccc2c1 yielded an IC50 (A549) of 24 µM.

In the case of O=c1ccc2cc(OCc3cc(-c4ccccc4Cl)no3)ccc2o1, the IC50 [1] is reported as 18.2 µM.

Work on O=c1ccc2cc(OCc3cc(-c4ccccc4)no3)ccc2o1 yielded an IC50 [2] of 43.3 µM and an IC50 [1] of 53.2 µM.

O=c1ccc2cc(OCc3cc(-c4ccc5ccccc5c4)no3)ccc2o1 showed an IC50 (COLO 205) of 48.7 µM, an IC50 [2] of 55.7 µM and an IC50 [3] of 55.9 µM.

For O=c1ccc2cc(OCc3cc(-c4cccc5ccccc45)no3)ccc2o1, the IC50 (COLO 205) was 47.2 µM, the IC50 [2] was 41.6 µM and the IC50 [3] was 51.5 µM.

Work on O=c1ccc2cc(OCc3cc(-c4cccc(Cl)c4)no3)ccc2o1 yielded an IC50 (COLO 205) of 32.5 µM, an IC50 [2] of 50.6 µM and an IC50 [3] of 42.1 µM.

Work on O=c1ccc2cc(OCc3cc(-c4ccc(Cl)cc4)no3)ccc2o1 yielded an IC50 (COLO 205) of 44.5 µM, an IC50 [2] of 44.6 µM and an IC50 [3] of 55.8 µM.

Work on O=c1ccc2cc(OCc3cc(-c4ccccc4[N+](=O)[O-])no3)ccc2o1 yielded an IC50 [1] of 8.2 µM.

For O=c1ccc2cc(OCc3cc(-c4cccc([N+](=O)[O-])c4)no3)ccc2o1, the IC50 (COLO 205) was 48.3 µM, the IC50 (A549) was 36.2 µM and the IC50 [2] was 44.4 µM. It also gave an IC50 [3] of 48.2 µM.

Compound O=c1ccc2cc(OCc3cc(-c4ccc([N+](=O)[O-])cc4)no3)ccc2o1 has an IC50 (COLO 205) of 47.8 µM, an IC50 [2] of 55.8 µM and an IC50 [3] of 42.2 µM.

N#Cc1ccccc1-c1cc(COc2ccc3oc(=O)ccc3c2)on1 gave an IC50 (A549) of 55.8 µM and an IC50 [1] of 13.6 µM.

In the case of COc1ccccc1-c1cc(COc2ccc3oc(=O)ccc3c2)on1, the IC50 [1] is reported as 22.4 µM.

For O=c1ccc2cc(OCc3cn(-c4ccccc4)nn3)ccc2o1, the IC50 (COLO 205) was 48.8 µM, the IC50 [2] was 41.6 µM and the IC50 [3] was 51.5 µM.

In the case of COc1ccc(-n2cc(COc3ccc4oc(=O)ccc4c3)nn2)cc1, the IC50 (COLO 205) is reported as 32.8 µM, the IC50 (A549) is reported as 46.8 µM and the IC50 [2] is reported as 46.4 µM. The IC50 [3] was 37.8 µM.

N#CCc1ccc(-n2cc(COc3ccc4oc(=O)ccc4c3)nn2)cc1 showed an IC50 (A549) of 29.2 µM.

O=c1ccc2cc(OCc3cn(-c4cccc(CO)c4)nn3)ccc2o1 gave an IC50 (A549) of 35.1 µM.

Compound CC(=O)Nc1ccc(-n2cc(COc3ccc4oc(=O)ccc4c3)nn2)cc1 has an IC50 [2] of 40.4 µM.

In the case of O=c1ccc2cc(OCc3cn(-c4ccccc4Cl)nn3)ccc2o1, the IC50 (A549) is reported as 17.1 µM.

With O=c1ccc2cc(OCc3cn(-c4cccc([N+](=O)[O-])c4)nn3)ccc2o1 the IC50 (COLO 205) was 36.6 µM, the IC50 [2] was 20.5 µM and the IC50 [1] was 49.3 µM. It also gave an IC50 [3] of 26.9 µM.

Work on O=c1ccc2cc(OCc3cn(-c4ccc(Cl)c(Cl)c4)nn3)ccc2o1 yielded an IC50 [2] of 47.8 µM and an IC50 [3] of 57.3 µM.

In the case of O=c1ccc2cc(OCc3cn(-c4ccccc4[N+](=O)[O-])nn3)ccc2o1, the IC50 (A549) is reported as 10.2 µM, the IC50 [2] is reported as 44.6 µM and the IC50 [3] is reported as 55.8 µM.

Compound O=c1ccc2cc(OCc3cn(-c4ccc([N+](=O)[O-])cc4)nn3)ccc2o1 has an IC50 (COLO 205) of 48.7 µM, an IC50 (A549) of 33.6 µM and an IC50 [2] of 46 µM. For the same compound, the IC50 [3] was 44.3 µM.

For N#Cc1ccccc1-n1cc(COc2ccc3oc(=O)ccc3c2)nn1, the IC50 (A549) was 12.6 µM and the IC50 [2] was 52.1 µM.

Compound COc1ccccc1-n1cc(COc2ccc3oc(=O)ccc3c2)nn1 has an IC50 (A549) of 18.7 µM and an IC50 [2] of 55.2 µM.

For O=c1ccc2cc(O)ccc2o1 [6-HYDROXYCOUMARIN], the IC50 (COLO 205) was 38.7 µM, the IC50 [2] was 35 µM and the IC50 [3] was 46.2 µM.

In the case of Cn1c(=O)n(-c2ccc(C(C)(C)C#N)cc2)c2c3cc(-c4cnc5ccccc5c4)ccc3ncc21 [DACTOLISIB], the IC50 (COLO 205) is reported as 0.085 µM, the IC50 (A549) is reported as 6.5 µM and the IC50 [2] is reported as 12.4 µM. The IC50 [1] was 12.3 µM and the IC50 [3] was 0.044 µM.
